Columns and labels:
Format in all cases: binding
STAT1 = target: T1, STAT1 (Homo sapiens, UniProt P42224); assay: Competitive fluorescence polarization (FP) assay, STAT1; details: for IC50: 80-92 nM STAT1, 10 nM tracer peptide; for Ki: Ki calculated from IC50, mean ± SD, n = 3
T1 sequence (P42224 1-750): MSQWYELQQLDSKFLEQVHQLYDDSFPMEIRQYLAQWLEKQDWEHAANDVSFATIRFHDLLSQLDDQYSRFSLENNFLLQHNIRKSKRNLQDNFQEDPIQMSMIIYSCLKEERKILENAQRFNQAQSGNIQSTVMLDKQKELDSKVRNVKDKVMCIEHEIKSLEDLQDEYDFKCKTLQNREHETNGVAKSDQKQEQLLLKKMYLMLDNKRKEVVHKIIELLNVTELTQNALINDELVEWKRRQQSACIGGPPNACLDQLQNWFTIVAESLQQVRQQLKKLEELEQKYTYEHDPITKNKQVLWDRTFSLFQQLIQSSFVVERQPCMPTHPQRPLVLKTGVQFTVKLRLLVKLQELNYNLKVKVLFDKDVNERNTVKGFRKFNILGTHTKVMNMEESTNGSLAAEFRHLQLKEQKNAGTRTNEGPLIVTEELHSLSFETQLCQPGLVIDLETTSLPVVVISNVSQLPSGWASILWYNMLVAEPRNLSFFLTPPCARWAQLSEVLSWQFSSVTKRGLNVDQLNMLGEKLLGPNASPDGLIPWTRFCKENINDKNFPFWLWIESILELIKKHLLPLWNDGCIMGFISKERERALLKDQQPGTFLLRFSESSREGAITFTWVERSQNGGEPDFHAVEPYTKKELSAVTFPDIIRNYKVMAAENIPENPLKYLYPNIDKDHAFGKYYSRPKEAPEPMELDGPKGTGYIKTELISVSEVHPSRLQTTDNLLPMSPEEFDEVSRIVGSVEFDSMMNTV
Method: (§1) Fluorescence polarization assays
(§2) STAT4; 5-carboxyfluorescein-GpYDKPHVL for STAT1; 5-carboxyfluorescein-GpYLPQTV- […]
(§3) fluorescent-labeled peptide was added. Samples were transferred to 384-well microtiter plates […]
(§4) Experiments were carried out in triplicate. Percent binding was calculated based on a logarithmic curve fit using OriginPro 8G software. Conversion of IC50 values to Ki-values was […]
(§5) Error bars represent standard deviations. […]
(§6) Experiments were carried out in triplicate. […]

STAT5b = target: T2, STAT5b (Homo sapiens, UniProt P51692); assay: Competitive fluorescence polarization (FP) assay, STAT5b; details: for IC50: 59-85 nM STAT5b, 10 nM tracer peptide; for Ki: Ki calculated from IC50, mean ± SD, n = 3; for inhibition at 100 µM: compound at 100 µM
T2 sequence (P51692 1-787): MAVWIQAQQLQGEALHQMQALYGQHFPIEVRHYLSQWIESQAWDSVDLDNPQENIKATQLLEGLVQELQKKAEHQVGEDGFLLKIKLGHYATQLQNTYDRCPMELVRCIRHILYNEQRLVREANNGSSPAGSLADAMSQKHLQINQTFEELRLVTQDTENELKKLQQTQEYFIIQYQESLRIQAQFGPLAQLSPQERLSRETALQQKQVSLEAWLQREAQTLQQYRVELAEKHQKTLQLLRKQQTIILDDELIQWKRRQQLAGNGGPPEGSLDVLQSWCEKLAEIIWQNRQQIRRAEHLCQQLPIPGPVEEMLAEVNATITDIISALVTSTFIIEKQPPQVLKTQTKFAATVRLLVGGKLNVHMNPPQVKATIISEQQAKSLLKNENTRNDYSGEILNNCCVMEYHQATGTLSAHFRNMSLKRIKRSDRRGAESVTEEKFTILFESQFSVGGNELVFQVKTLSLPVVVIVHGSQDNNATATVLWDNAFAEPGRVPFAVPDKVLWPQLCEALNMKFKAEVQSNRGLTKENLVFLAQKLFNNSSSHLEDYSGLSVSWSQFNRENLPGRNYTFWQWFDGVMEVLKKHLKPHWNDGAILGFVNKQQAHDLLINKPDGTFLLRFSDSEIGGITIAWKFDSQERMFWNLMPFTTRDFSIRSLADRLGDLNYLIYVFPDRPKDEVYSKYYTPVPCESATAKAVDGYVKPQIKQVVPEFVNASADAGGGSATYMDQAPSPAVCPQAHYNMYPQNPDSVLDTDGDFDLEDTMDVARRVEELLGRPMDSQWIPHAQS
Method: as §1, §2, §3, §4, §5, §6

STAT5a = target: T3, STAT5a (Homo sapiens, UniProt P42229); assay: Competitive fluorescence polarization (FP) assay, STAT5a; details: for IC50: 125-177 nM STAT5a, 10 nM tracer peptide; for Ki: Ki calculated from IC50, mean ± SD, n = 3
T3 sequence (P42229 1-794): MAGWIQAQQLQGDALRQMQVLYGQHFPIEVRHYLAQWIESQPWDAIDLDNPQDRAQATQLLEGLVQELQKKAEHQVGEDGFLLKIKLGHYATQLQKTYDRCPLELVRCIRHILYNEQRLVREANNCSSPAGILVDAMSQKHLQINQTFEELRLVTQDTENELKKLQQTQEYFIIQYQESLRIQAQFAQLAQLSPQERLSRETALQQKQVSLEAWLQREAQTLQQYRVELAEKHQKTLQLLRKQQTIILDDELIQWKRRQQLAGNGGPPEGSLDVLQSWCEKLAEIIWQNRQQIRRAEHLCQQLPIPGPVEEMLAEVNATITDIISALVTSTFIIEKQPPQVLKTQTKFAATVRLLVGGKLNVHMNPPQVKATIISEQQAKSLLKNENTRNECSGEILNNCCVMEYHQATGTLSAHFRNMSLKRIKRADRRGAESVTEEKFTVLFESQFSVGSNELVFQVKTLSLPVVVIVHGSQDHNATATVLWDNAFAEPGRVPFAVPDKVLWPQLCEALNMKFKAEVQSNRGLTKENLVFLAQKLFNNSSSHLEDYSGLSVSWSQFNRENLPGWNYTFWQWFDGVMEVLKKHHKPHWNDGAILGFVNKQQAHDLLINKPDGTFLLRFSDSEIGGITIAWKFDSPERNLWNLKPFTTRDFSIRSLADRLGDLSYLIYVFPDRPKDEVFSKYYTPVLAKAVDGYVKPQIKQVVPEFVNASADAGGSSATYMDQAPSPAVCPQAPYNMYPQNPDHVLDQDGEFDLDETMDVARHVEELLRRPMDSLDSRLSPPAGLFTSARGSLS
Method: as §1, §2, §3, §4, §5, §6

Row | SMILES | IC50 (STAT1) | Ki (STAT1) | IC50 (STAT5b) | Ki (STAT5b) | IC50 (STAT5a) | Ki (STAT5a) | inhibition at 100 µM (STAT5b) | inhibition at 200 µM (STAT5b; compound at 200 µM)
1 | O=P(O)(O)Oc1ccc(-c2ccsc2)cc1 [8a] | 20.2 µM | 9.2 ± 1 µM | 47 µM | 23 ± 1 µM | 41 µM | 20 ± 0.2 µM | – | –
2 | O=P(O)(O)Oc1ccc(-c2cccs2)cc1 [8b] | 19.5 µM | 8.9 ± 0.5 µM | 16.8 µM | 8.2 ± 0.4 µM | 14.8 µM | 7.3 ± 0.9 µM | – | –
3 | O=P(O)(O)Oc1ccc(-c2nccs2)cc1 [8c] | 83 µM | 38 ± 3 µM | – | – | 122 µM | 61 ± 3 µM | 26 ± 2% | 45 ± 1%
4 | Cc1cc(-c2ccc(OP(=O)(O)O)c(F)c2)cs1 [8f] | 9 µM | 4.4 ± 0.4 µM | 36 µM | 18 ± 1 µM | 28 µM | 14 ± 1 µM | – | –
5 | O=P(O)(O)Oc1ccc2c(c1)Cc1ccccc1-2 [compound 11] | 14.3 µM | 6.5 ± 0.2 µM | 101 µM | 49 ± 6 µM | 43 µM | 21 ± 1 µM | – | –
6 | O=P(O)(O)Oc1ccc2c(c1)oc1ccccc12 [compound 12] | 34.3 µM | 16 ± 1 µM | – | – | 55 µM | 27 ± 1 µM | 49 ± 1% | –

From article PMC12597212, “Biaryl Phosphate‐Based Inhibitors of the Transcription Factor STAT4” (Chemmedchem, 2025)
